# What was measured:
# [1] = Stability in CD-1 mouse microsomes assessed as half-life in presence of NADP; type: ADME, Microsome
# [2] = Cytotoxicity against human HepG2 cells assessed as reduction in cell viability incubated for 72 hrs by MTT assay; type: toxicity, cell-based
# [3] = Selectivity index, ratio of CC50 for cytotoxicity against human HepG2 cells to EC50 for antiplasmodial activity against erythrocytic stage of chloroquine, pyrimethamine and sulfadoxine resistant Plasmodium falciparum K1 infected in human erythrocytes; type: toxicity, cell-based; details: read-out: Ratio CC50/EC50
# [4] = (§1) Cytotoxicity against Cynomolgous monkey hepatocytes harboring Simian virus assessed as reduction in cell viability administered for 3 hrs followed by replacement with fresh medium containing compound for every 24 hrs by DAPI staining based analysis; type: toxicity, Macaca fascicularis, Hepatocyte; details: cynomolgus monkey
# Plasmodium berghei = assay: as §1, with “Antiplasmodial activity” for “Cytotoxicity”, “against hepatic stage of Plasmodium berghei ANKA sporozoites infected in” for “against”, “parasite growth” for “cell viability”; type: functional, organism-based; details: Hepatocyte
# Plasmodium falciparum = assay: Antiplasmodial activity against erythrocytic stage of chloroquine, pyrimethamine and sulfadoxine resistant Plasmodium falciparum K1 infected in human erythrocytes assessed as reduction in parasite growth incubated for 72 hrs by SYBR green I fluorescence based spectrophotometric analysis; type: functional, organism-based; details: K1, Erythrocyte
# [5] = Stability in CD-1 mouse microsomes assessed as intrinsic clearance measured upto 40 mins in presence of NADP; type: ADME, Microsome
# [6] = target: Voltage-gated inwardly rectifying potassium channel KCNH2 (Homo sapiens, UniProt Q12809); assay: Inhibition of hERG incubated for 4 hrs by fluorescence polarization assay; type: toxicity
# [7] = Effective permeability of compound at pH 7.4 incubated for 4 hrs by PAMPA-GIT assay; type: ADME; details: read-out: Peff
# [8] = Effective permeability of compound at pH 5 incubated for 4 hrs by PAMPA-GIT assay; type: ADME; details: read-out: Peff
# [9] = Solubility of compound in PBS at 1 mg incubated for 10 mins by HPLC analysis; type: physicochemical
# [10] = Chromatographic hydrophobicity index, log D of the compound at pH 7.4 by HPLC analysis; type: physicochemical; details: buffer
# [11] = Solubility of compound in DMSO; type: physicochemical
# Chain of Voltage-gated inwardly rectifying potassium channel KCNH2 (Q12809 whole entry): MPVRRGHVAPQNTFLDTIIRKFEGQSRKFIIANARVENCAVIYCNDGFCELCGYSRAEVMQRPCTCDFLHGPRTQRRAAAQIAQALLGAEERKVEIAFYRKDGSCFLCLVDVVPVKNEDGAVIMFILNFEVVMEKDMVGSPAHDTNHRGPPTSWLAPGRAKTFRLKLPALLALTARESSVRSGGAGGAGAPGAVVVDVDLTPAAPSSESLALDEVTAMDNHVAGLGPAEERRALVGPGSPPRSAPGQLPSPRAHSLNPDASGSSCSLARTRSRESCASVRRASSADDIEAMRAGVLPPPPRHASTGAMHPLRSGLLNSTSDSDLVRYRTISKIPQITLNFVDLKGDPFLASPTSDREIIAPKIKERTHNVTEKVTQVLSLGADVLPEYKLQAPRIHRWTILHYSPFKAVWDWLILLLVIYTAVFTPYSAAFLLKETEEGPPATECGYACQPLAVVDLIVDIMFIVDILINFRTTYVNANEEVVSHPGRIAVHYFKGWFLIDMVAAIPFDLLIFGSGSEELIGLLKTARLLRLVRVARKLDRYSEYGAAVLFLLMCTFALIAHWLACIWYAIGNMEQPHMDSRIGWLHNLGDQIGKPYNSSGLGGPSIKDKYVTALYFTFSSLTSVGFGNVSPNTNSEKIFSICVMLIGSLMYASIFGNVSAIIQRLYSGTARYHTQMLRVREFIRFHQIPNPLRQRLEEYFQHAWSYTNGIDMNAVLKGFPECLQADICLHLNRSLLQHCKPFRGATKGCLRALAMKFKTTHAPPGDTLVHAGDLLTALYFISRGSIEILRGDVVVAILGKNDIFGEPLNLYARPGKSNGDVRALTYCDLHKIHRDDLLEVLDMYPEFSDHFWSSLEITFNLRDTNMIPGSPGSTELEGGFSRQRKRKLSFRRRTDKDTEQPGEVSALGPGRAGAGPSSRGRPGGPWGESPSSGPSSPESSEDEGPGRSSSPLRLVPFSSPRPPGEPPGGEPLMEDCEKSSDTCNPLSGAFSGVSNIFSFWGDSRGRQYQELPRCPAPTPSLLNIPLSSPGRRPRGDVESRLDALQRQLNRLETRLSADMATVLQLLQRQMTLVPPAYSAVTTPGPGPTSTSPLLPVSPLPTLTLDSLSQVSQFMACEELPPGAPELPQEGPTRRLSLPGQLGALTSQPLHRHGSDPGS
SMILES,CC50 at 72 h [2] [µM],selectivity ratio [3],CC50 at 3 h [4] [µM],EC50 (Plasmodium berghei) [µM],EC50 (Plasmodium falciparum) [µM],further results
Cc1ccc(-c2cc3nc(NC4CCCC4)[nH]c(=O)c3s2)cc1,> 7.8,> 5.6,> 100,10.5,1.4,half-life [1]: 38 min; microsomal CLint [5]: 58 µL/min/mg
Cc1ccc(-c2cc3nc(N4CCCCC4)[nH]c(=O)c3s2)cc1,> 3.1,–,–,–,> 25,–
Cc1ccc(-c2cc3nc(NC(C)(C)C)n(C(C)C)c(=O)c3s2)cc1,> 3.9,> 0.9,–,–,4.2,–
[2H]C([2H])([2H])C(Nc1nc2cc(-c3ccc(C)cc3)sc2c(=O)[nH]1)C([2H])([2H])[2H],> 10,> 50,> 100,15.9,0.2,half-life [1]: 11 min; microsomal CLint [5]: 214 µL/min/mg
Cc1ccc(-c2cc3nc(C(C)(C)C)[nH]c(=O)c3s2)cc1,–,–,–,–,–,IC50 [6]: > 100 µM
Cc1ccc(-c2cc3nc(NC(C)(C)C(F)(F)F)[nH]c(=O)c3s2)cc1,23.9,> 10,–,–,> 10,–
Cc1ccc(-c2cc3nc(NC(C)(C)C)n(-c4ccccc4)c(=O)c3s2)cc1,> 3.1,–,–,–,> 12.5,–
[2H]C([2H])([2H])C(Nc1nc2cc(-c3ccc(C)cc3)sc2c(=O)[nH]1)(C([2H])([2H])[2H])C([2H])([2H])[2H],17.9,149,> 100,13.7,0.1,half-life [1]: 8.5 min; microsomal CLint [5]: 209 µL/min/mg
Cc1ccc(-c2cc3nc(N)n(C)c(=O)c3s2)cc1,> 6.2,–,–,–,> 25,–
CCn1c(NC(C)(C)C)nc2cc(-c3ccc(C)cc3)sc2c1=O,5.8,1.4,–,–,> 12.5,–
Cc1ccc(-c2cc3nc(NC4CCC4)[nH]c(=O)c3s2)cc1.Cl,–,–,–,–,–,Papp at 4 h [7]: 4.36 ×10⁻⁶ cm/s; Papp at 4 h [8]: 18.1 ×10⁻⁶ cm/s; IC50 [6]: > 100 µM; solubility at 10 min [9]: 1.4 µM; chromatographic logD [10]: 3.16
Cc1ccc(-c2cc3nc(NC4CCCCC4)[nH]c(=O)c3s2)cc1,> 12.5,–,–,–,> 12.5,–
Cc1ccc(-c2cc3nc(N4CCCC4)[nH]c(=O)c3s2)cc1,> 3.1,> 2.1,> 200,> 100,1.4,–
Cc1ccc(-c2cc3nc(N4CCC4)[nH]c(=O)c3s2)cc1,–,–,–,–,–,solubility [11]: Insoluble
C[C@H]1c2cccc(O)c2C(=O)C2=C(O)[C@]3(O)C(=O)C(C(N)=O)=C(O)[C@@H](N(C)C)[C@@H]3[C@@H](O)[C@@H]21 [DOXYCYCLINE ANHYDROUS],–,4,–,–,–,–
COc1cc(NC(C)CCCN)c2ncccc2c1 (stereo not drawn) [PRIMAQUINE],–,–,> 50,7.26,–,–
Cc1ccc(-c2cc3nc(N)n(CCCN(C)C)c(=O)c3s2)cc1,4.1,0.42,–,–,9.8,–
Cc1ccc(-c2cc3nc(N4CCN(C)CC4)[nH]c(=O)c3s2)cc1,8.7,< 0.3,–,–,> 25,–
Cc1ccc(-c2cc3nc(N[C@H]4CCNC4)[nH]c(=O)c3s2)cc1,13.2,< 0.4,–,–,> 31.2,–
Cc1ccc(-c2cc3nc(NC4CCC4)[nH]c(=O)c3s2)cc1,14,12.7,> 100,11.2,1.1,half-life [1]: 29 min; microsomal CLint [5]: 78 µL/min/mg
Cc1ccc(-c2cc3nc(NC(C)C)[nH]c(=O)c3s2)cc1,–,–,> 200,55.6,–,half-life [1]: 11 min; microsomal CLint [5]: 214 µL/min/mg
Cc1ccc(-c2cc3nc(NC4CC4)[nH]c(=O)c3s2)cc1,4,4.4,> 100,5.5,0.9,half-life [1]: 15 min; microsomal CLint [5]: 136 µL/min/mg
Cc1ccc(-c2cc3nc(N4CCOCC4)[nH]c(=O)c3s2)cc1,3.6,< 0.4,–,–,> 10,–

# — ChEMBL document CHEMBL5634142, “Novel thienopyrimidones targeting hepatic and erythrocytic stages of Plasmodium parasites with increased microsomal stability” (Eur J Med Chem, 2023)
